Test results as given in article PMC8165102 (International Journal of Nanomedicine, 2021).
In brackets after ≈: the same amount, converted by molar mass.

Assays:
[1] = tested on: guinea pig papillary muscle; conditions: 0.4 µM; cited from earlier work
[2] = cited from earlier work
[3] = Surfactant-assisted rapid release of BF211@Lipo; assay type: physicochemical

Row | Compound | effect on papillary muscle [1] | solubility [2] [µg/mL] | release-promoting effect on BF211@Lipo [3]
1 | C[C@]12CC[C@H](O)C[C@H]1CC[C@@H]1[C@@H]2CC[C@]2(C)[C@@H](c3ccc(=O)oc3)CC[C@]12O [BF, Bufalin] | arrhythmias | 10 (≈ 25.9 µM) | –
2 | Tween 80 | – | – | weak and unregulated release-promoting effect
